The results in this text go back to patent publication US20250127868A1, “HYPERACTIVATING LIPID NANOPARTICLES” (Corner Therapeutics, Inc., priority 2022, published 2025).

What all share (assay type): cell-based
Assay [1] relates to canine PBMCs. As to the kind of experiment: IL-1β secretion by canine PBMCs (ELISA). To be noted: two days post-activation, R848 1 μg/mL, 22:0 LYSO PC 82.5 μM, LPS 1 μg/mL, Alum 30 μg/mL. Background: An ELISA detects its analyte on a solid surface through an enzyme-linked reagent.
In assay [2] the test system is human PBMCs. As to the kind of experiment: IFNγ secretion by human PBMCs (ELISA). To be noted: two days post-activation. Here is the method: (§1) Isolation of PBMCs from Whole Blood. PBMCs were isolated from whole blood using density gradient centrifugation with Ficoll-Paque PLUS (Cytivia). Whole blood was diluted 1:1 with PBS, layered on top of Ficoll-Paque PLUS and centrifuged at 1000×g for 30 minutes at room temperature. PBMCs were collected, washed twice in PBS, and incubated with Ack lysis buffer (Lonza) to remove any remaining red blood cells.
(§2) Cell Culture and Stimulation. Immediately following isolation, PBMCs were plated in RPMI medium containing 10% FBS, 50 units/mL penicillin, […] streptomycin, 2 mM L-glutamine, 1 mM sodium pyruvate, and […] beta-mercaptoethanol (R10 media). […]
(§3) Endpoint Analyses. […] Half of the media volume in the wells was collected for cytokine quantification by Enzyme-Linked Immunosorbent Assay (ELISA) or Lumit™ Bioluminescent assay, while the remaining media and cells were used to quantify cell viability by assessing metabolic activity.
(§4) Quantification of Cytokine Secretion. IL-1β secretion from human PBMCs was assessed using one of the following kits: ELISA MAX Deluxe Set Human IL-1β kit (Biolegend), Invitrogen Human IL-1β kit, or the Lumit™ Human IL-1β Immunoassay (Promega). IFNγ secretion from human PBMCs was assessed using the ELISA MAX Deluxe Set Human IFNγ (Biolegend) and TNFα secretion from human PBMCs was assessed using the Human TNFα Uncoated ELISA kit (Invitrogen). […]

In assay [3] the test system is human PBMCs. In words: IL-1β secretion by human PBMCs (ELISA or Lumit). Conditions: two days post-activation, R848 1 μg/mL, 22:0 LYSO PC 82.5 μM. Here is the method:
as §1, §2, §3, §4

For “GM-CSF: human GM-CSF (Peprotech), added at 10 ng/ml”, the IL-1β secretion result in assay [1] is on record as “neither GM-CSF nor 2′3′cGAMP induced significant IL-1β secretion”; in assay [3], “did not induce levels of IL-1β secretion from human PBMCs significantly above background levels”. In addition, the “IFNγ secretion, fold change per donor relative to R848 alone” value in assay [2] is reported as “neither GM-CSF nor 2′3′cGAMP elicited a substantial fold change in IFNγ secretion”.
Take `Nc1nc2c(ncn2[C@@H]2O[C@@H]3COP(=O)(O)O[C@H]4[C@@H](O)[C@H](n5cnc6c(N)ncnc65)O[C@@H]4COP(=O)(O)O[C@@H]2[C@@H]3O)c(=O)[nH]1` [2′3′cGAMP, reference compound]: the IL-1β secretion result in assay [1] was “neither GM-CSF nor 2′3′cGAMP induced significant IL-1β secretion”. Further, the “IFNγ secretion, fold change per donor relative to R848 alone” value in assay [2] is recorded as “neither GM-CSF nor 2′3′cGAMP elicited a substantial fold change in IFNγ secretion”.
